# Test results: article PMC7312911, “Affibody-Binding Ligands” (International Journal of Molecular Sciences, 2020)
# Where no end group is shown, it is not given here.
# Key:
# [1] = test system: anti-IgG affibody; test: Affibody binding/elution in non-competitive conditions on peptide–Toyopearl, anti-IgG affibody; details: 100 μL of 50:50 labeled anti-HSA and anti-IgG affibodies, total 1 mg/mL, in PBS pH 7.4; 50 μL resin; 1 h, room temperature; elution 0.2 M acetate pH 3.8; fluorescence spectroscopy
# Protocol: (§1) Ten peptides selected by sequence homology, namely, ARISRQ, IGKQRI, DIRIIR, QAAKRI, SHHSQR, DIHIRR, DHHKKA, DIRIQR, KSAYHS, and IHQRGQ, were tested as ligand candidates through binding studies in non-competitive conditions (pure affibody). The peptides were synthesized directly on Toyopearl AF-Amino 650 M resin by Fmoc/tBu synthesis; polymethacrylate-based Toyopearl resin was chosen as a chromatographic support for secondary screening in place of ChemMatrix, owing to its chemical resistance to the reagents and solvents used for peptide synthesis, low non-specific protein binding, and mechanical strength. The peptide–Toyopearl adsorbents were individually incubated with a 1:1 solution of AF594-labeled anti-HSA affibody and AF488-labeled anti-IgG affibody at the concentration of 1 mg/mL for 1 h at room temperature under gentle rotation. After washing with PBS, affibody elution (EL) was performed under acidic conditions (pH 3.8), followed by resin regeneration (R) using a harsh denaturing buffer (0.45% w/v 3-[(3-cholamidopropyl)dimethylammonio]-1-propanesulfonate (CHAPS) in 0.1 M glycine, pH 2.5). The amounts of affibodies in the unbound (UB), elution (EL), and regeneration (R) fractions, measured by fluorescence spectroscopy, were utilized to calculate the values of flow-through (FT) ratio (mass of affibody in the FT fraction vs. mass of fed antibody) and yield (mass of affibody eluted vs. mass of bound affibody), listed in Table 2.
# (§2) The identified sequences were synthesized on Toyopearl AF-Amino 650 M resin by Fmoc/tBu synthesis to be tested for affibody binding in non-competitive mode. Aliquots of 50 μL of each peptide–Toyopearl adsorbent were transferred in a PCR tube, swollen in 20% methanol overnight, and copiously washed in 20% methanol to remove any residual chemical from peptide synthesis, before equilibrating in Milli-Q water followed by PBS, pH 7.4. Next, 100 μL of 50:50 solution of fluorescently labeled anti-HSA and anti-IgG affibodies (Section 2.3) at a total 1 mg/mL affibody concentration were incubated with every aliquot of peptide–Toyopearl resin for 1 h at room temperature under gentle rotation. Following incubation, the resins were pelleted by centrifugation, and the supernatant was collected and marked as “unbound” (UB) fraction. The resins were then washed with PBS and the supernatant were combined with the UB fractions. Protein elution (EL) was then performed by incubating the resins with 0.2 M acetate buffer at pH 3.8 (0.2 M acetic acid and 0.2 M sodium acetate at a 7:3 ratio) for 30 min at room temperature, and then by washing with the same elution buffer. Regeneration (R) was then performed by incubating the adsorbents with 100 mM glycine buffer at pH 2.5 added with 0.45% w/v CHAPS, at 4 °C for overnight. The collected elution fractions (EL and R) were finally equilibrated to neutral pH using PBS, pH 7.4. Finally, both UB and E fractions were diluted in PBS and analyzed by fluorescence spectroscopy.
# [2] = test system: anti-HSA affibody; test: Affibody purification in competitive conditions (clarified E. coli cell lysate), anti-HSA affibody; format: binding; details: elution pH 3.8; for Recovery, anti-HSA affibody: 0.4 mg/mL affibody and 2 mg/mL E. coli HCPs, 200 μL feed, room temperature, eluted vs. loaded amount, fluorescence spectroscopy; for Purity, anti-HSA affibody: competitive, clarified E. coli cell lysate, densitometric analysis of EL lanes, SDS-PAGE
# Protocol: (§3) The adsorbents IGKQRI–GSG–Toyopearl, IHQRGQ–GSG–Toyopearl, KSAYHS–GSG–Toyopearl, and DIRIIR–GSG–Toyopearl resins were utilized to evaluate the ability of the selected sequences to purify affibody molecules from complex sources. To this end, a feed sample was prepared by spiking fluorescently labeled anti-HSA and anti-IgG affibodies at a 1:1 molar ratio into clarified E. coli cell lysate, to obtain a final concentration of 0.4 mg/mL of affibody and 2 mg/mL of bacterial HCPs. The peptide–Toyopearl adsorbents were incubated with 200 μL of feed sample for 30 min at room temperature under gentle rotation. The unbound (UB) and elution (EL) fractions were analyzed by fluorescence spectroscopy and SDS-PAGE (Figure 1) to determine the values of recovery and purity for both affibody products (Table 3). It is noted that the mass of the affibody product measured electrophoretically appears to be double than the theoretical 6.5 kDa; this is likely due to dimerization of the affibodies by formation of a disulfide bond through their C-terminal cysteine residues.
# (§4) Three sequences selected in Section 2.6 were then evaluated for affibody binding in competitive mode. Aliquots of 100 μL of the peptide–Toyopearl adsorbents were swollen and equilibrated as described in Section 2.6. The feed sample was prepared by combining 100 μL of equimolar solution of fluorescently labeled anti-HSA and anti-IgG affibodies at a total 2 mg/mL affibody concentration with 400 μL of clarified E. coli cell lysate at the adjusted concentration of host cell proteins (HCPs) of 2.5 mg/mL, to obtain a final concentration of 0.4 mg/mL of affibody and 2 mg/mL of HCPs. Next, 200 μL of feed samples were incubated with each aliquot of wet peptide–Toyopearl resin for 2 h at room temperature under gentle rotation. After incubation, unbound (UB) and elution (EL) fractions were obtained as described in Section 5.2.5; they were then analyzed by fluorescence spectroscopy to determine the yield of both affibodies and finally by SDS-PAGE to determine the total purity of the eluted affibody products.
# (§5) The collected fractions were desalted into phosphate buffer at pH 7.4 using Amicon Ultra 0.5-mL centrifugal filters (3 kDa MWCO). Based on the total protein concentration determined by Bradford assay, the collected fractions were adjusted at a total protein concentration of 0.1 mg/mL, diluted 1:1 with 2× Laemmli sample buffer containing 5% β-mercaptoethanol, and incubated at 100 °C for 5 min. Next, 20 µL of each sample was loaded onto each well of a 12% Mini PROTEAN® TGX precast electrophoresis gel. Then, 10 µL of Precision Plus Protein TM Dual Color Standards diluted 100× in Laemmli sample buffer was loaded in the first and last wells. Gels were electrophoresed at 100 V constant for 95 min using a Mini PROTEAN Tetra Cell (Bio-Rad, Hercules, CA, USA) linked to a PowerPac 300 power supply (Bio-Rad). Gels were fixed in 10% acetic acid, 40% ethanol in MilliQ water for 1 h. Fixed gels were washed with MilliQ water and Coomassie stained. Imaging and densitometric analysis were performed with a GelDoc XR+ (Bio-Rad) and Image Lab software (Bio-Rad) with band intensities scaled to the intensity of an affibody standard.
# [3] = test system: 1:1 solution of AF594-labeled anti-HSA affibody and AF488-labeled anti-IgG affibody; test: Affibody binding/elution in non-competitive conditions on peptide–Toyopearl, affibody mixture; details: for capture of IgG-binding and HSA-binding affibodies compared: non-competitive, pure affibodies 1:1; for Yield (mass of affibody eluted vs. mass of bound affibody): non-competitive (pure affibody), PBS pH 7.4, 1 h, room temperature, elution pH 3.8, fluorescence spectroscopy
# Protocol: as §1, §2
# [4] = test system: anti-HSA affibody; test: Affibody binding/elution in non-competitive conditions on peptide–Toyopearl, anti-HSA affibody; details: 100 μL of 50:50 labeled anti-HSA and anti-IgG affibodies, total 1 mg/mL, in PBS pH 7.4; 50 μL resin; 1 h, room temperature; elution 0.2 M acetate pH 3.8; fluorescence spectroscopy
# Protocol: as §1, §2
# [5] = test system: anti-IgG affibody; test: Affibody purification in competitive conditions (clarified E. coli cell lysate), anti-IgG affibody; format: binding; details: elution pH 3.8; for Recovery, anti-IgG affibody: 0.4 mg/mL affibody and 2 mg/mL E. coli HCPs, 200 μL feed, room temperature, eluted vs. loaded amount, fluorescence spectroscopy; for Purity, anti-IgG affibody: competitive, clarified E. coli cell lysate, densitometric analysis of EL lanes, SDS-PAGE
# Protocol: as §3, §4, §5
# [6] = test system: anti-IgG, anti-HSA, and anti-ErbB2 affibodies; test: Langmuir adsorption isotherms, all three affibodies; format: binding
# Protocol: The adsorption isotherms of anti-IgG, anti-HSA, and anti-ErbB2 affibodies on IGKQRI–GSG–Toyopearl resin were performed as described in prior work [37, 51]. Toyopearl resins functionalized with human IgG and serum albumin were utilized as corresponding positive controls, while Toyopearl® HW-40F was utilized as a negative control. Briefly, the adsorbents were incubated with solutions of target affibody at concentrations ranging between 0.01 and 2 mg/mL until binding equilibrium was reached (2.5 h). The values of bound affibody per volume of resin (q) and the corresponding equilibrium concentration of unbound affibody (C*) were fit to a Langmuir isotherm model to determine the value of maximum binding capacity (Qmax) and dissociation constant (KD,Langmuir).
# Eight 50-µL aliquots of IGKQRI–GSG–Toyopearl resin were initially equilibrated in PBS at pH 7.4. Eight 0.2-mL solutions of anti-hIgG, anti-hHSA, and anti-ErbB2 affibodies in PBS at concentrations ranging from 0.01 to 2 mg/mL were prepared and incubated with the aliquots of IGKQRI–GSG–Toyopearl resin for 2.5 h at room temperature under mild shaking. […] The supernatant and washing solutions were combined and analyzed by fluorescence spectroscopy to determine the equilibrium concentration of affibody solution. The mass of affibody bound by the resin was determined by mass balance. […]
Substance,"mFT/mE (Anti-IgG), flow-through elution mass ratio [1]","Recovery, anti-HSA affibody [2]","Purity, anti-HSA affibody [2] [%]",capture of IgG-binding and HSA-binding affibodies compared [3],"mFT/mE (Anti-HSA), flow-through elution mass ratio [4]","Recovery, anti-IgG affibody [5]","Purity, anti-IgG affibody [5] [%]",Yield (mass of affibody eluted vs. mass of bound affibody) [3] [%],binding of all target affibodies compared ([6]; Langmuir isotherms),"binding capacity (Qmax), summary ([6]; static binding, pure affibodies, summary over three affibodies)"
IHQRGQ,0.446,96.1% ± 2.4%,92.6,equal capture of IgG-binding and HSA-binding affibodies,0.781,95.3% ± 4.5%,93.1,–,–,–
DIRIQR,0.445,–,–,–,2.401,–,–,39.5,–,–
KSAYHS,0.405,89.5% ± 0.7%,96.3,equal capture of IgG-binding and HSA-binding affibodies,0.796,88.6% ± 3.4%,96.4,–,–,–
DIHIRR,1.277,–,–,–,0.473,–,–,40.4,–,–
DIRIIR,0.707,74.9% ± 3.6%,96.2,–,1.553,78.3% ± 2.5%,96.5,–,–,–
ARISRQ,0.885,–,–,–,1.709,–,–,51.7,–,–
IGKQRI [IGKQRI],0.448,95.2% ± 4.6%,94.1,equal capture of IgG-binding and HSA-binding affibodies,0.628,97.2% ± 1.5%,95.8,–,comparable affinity and binding capacity,~ 5 mg affibody per mL of resin
DHHKKA,1.256,–,–,–,2.039,–,–,38.5,–,–
SHHSQR,1.238,–,–,–,1.387,–,–,44.3,–,–
QAAKRI,2.245,–,–,–,0.801,–,–,35,–,–
